Data published in publication PMC12062478, “Screening herbal and natural product libraries to aid discovery of novel allosteric modulators of human P2X7” (Purinergic Signalling, 2024).

Assays:
[1] = system: HEK-293 cells; experiment: Cell viability assay (AlamarBlue) in non-transfected HEK-293 cells; type: cell-based, human; details: 10 µM, 24 h
Experimental: Cells were plated at 2 × 10^4 cells/well in Nunc 96-well plates (Fisher Scientific #167-008) 24 h prior to stimulation with ATP 500 µM or 3 mM in combination with identified positive or negative crude plant extracts, respectively, or with purified compounds (10 µM) for 24 h. Following incubation, resazurin (0.1 mg/mL in PBS, Sigma-Aldrich) was added to cells for 2 h at 37 °C and fluorescence was measured on a Flexstation 3 plate reader (excitation 570 nm; emission 600 nm).
(§1) Fig. 6 Dioscin enhances P2X7-dependent pore formation and potentiates channel opening. A Dioscorea nipponica (organic) plant extract (30 µg/mL) increased ATP-dependent YO-PRO-1 iodide uptake. AZ10606120 (10 µM, grey bars) was added to block hP2X7. B YO-PRO-1 uptake following a co-stimulation of HEK-hP2X7 cells with 200 µM ATP ± the named compounds in the presence or absence of AZ10606120. YO-PRO-1 uptake was quantified between 50 and 300 s (n = 5). C Whole-cell patch-clamp recordings were performed at room temperature. Cells were voltage-clamped at − 60 mV, and responses to a 5-s stimulation of ATP (100 µM) followed by a 5-s stimulation of ATP (100 µM) + dioscin/diosgenin (10 µM) were measured from HEK-hP2X7 cells. Representative traces are shown. D Summary of normalised current amplitudes represented as a fold change compared to ATP responses in the absence of dioscin/diosgenin (n = 10–18 cells). […]

[2] = system: non-transfected HEK-293 cells; experiment: YO-PRO-1 dye uptake in non-transfected HEK-293 cells; type: cell-based, human; details: 10 µM, in the presence of ATP
Experimental: HEK-hP2X7 or HEK-hP2X4 cells were plated at 2.5 × 10^4 cells per well (100 µL volume) the day before experiments into poly-D-lysine (Merck Millipore) coated 96-well plates (NUNC, Fisher Scientific #167-008). The membrane impermeant dye YO-PRO-1 iodide (Life Technologies, Fisher Scientific) was used at a final concentration of 2 µM in low divalent buffer (145 mM NaCl, 5 mM KCl, 0.2 mM CaCl2, 13 mM glucose, 10 mM HEPES, pH 7.3, osm 300–310). Media were removed from the plate, and 90 µL of YO-PRO-1 buffer was added per well. Plates were warmed to 37 °C for 5 min before recording. Data was acquired on a Flexstation 3 plate reader (Molecular Devices) using excitation wavelength 490 nm, emission wavelength 520 nm, and six reads per well (PMT medium). Compounds or plant extracts at 10X final concentration were automatically injected at 30 s, and then, ATP was automatically injected at 90 s from a 96-well V-bottomed drug plate (Greiner). This enabled cells to be pre-treated with compounds/plant extracts for 60 s before the agonist was injected. […]
Fig. 6 Dioscin enhances P2X7-dependent pore formation and potentiates channel opening. […] YO-PRO-1 uptake was quantified between 50 and 300 s (n = 5). […] Cells were voltage-clamped at − 60 mV, and responses to a 5-s stimulation of ATP (100 µM) followed by a 5-s stimulation of ATP (100 µM) + dioscin/diosgenin (10 µM) were measured from HEK-hP2X7 cells. […]

[3] = target: T1, hP2X7 (Homo sapiens, UniProt Q99572); experiment: Whole-cell patch-clamp electrophysiology in HEK-hP2X7 cells; type: cell-based
T1 sequence (Q99572 1-595): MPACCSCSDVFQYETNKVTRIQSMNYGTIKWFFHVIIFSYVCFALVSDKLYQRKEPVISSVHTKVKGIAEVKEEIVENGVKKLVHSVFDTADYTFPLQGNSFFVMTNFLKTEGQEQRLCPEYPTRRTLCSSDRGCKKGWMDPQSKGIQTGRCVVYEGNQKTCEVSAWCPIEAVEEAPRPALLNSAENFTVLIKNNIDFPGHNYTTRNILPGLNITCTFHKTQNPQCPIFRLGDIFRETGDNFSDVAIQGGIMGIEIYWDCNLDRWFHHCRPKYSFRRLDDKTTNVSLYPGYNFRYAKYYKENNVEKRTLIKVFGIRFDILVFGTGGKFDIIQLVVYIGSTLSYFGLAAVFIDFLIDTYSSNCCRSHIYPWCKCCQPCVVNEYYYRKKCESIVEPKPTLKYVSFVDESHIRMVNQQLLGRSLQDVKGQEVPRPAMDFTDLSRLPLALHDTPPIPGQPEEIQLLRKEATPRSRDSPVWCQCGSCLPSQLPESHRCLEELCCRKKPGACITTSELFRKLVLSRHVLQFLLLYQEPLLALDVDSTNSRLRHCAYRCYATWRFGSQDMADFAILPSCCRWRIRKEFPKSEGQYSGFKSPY
Experimental: Stably expressing HEK-hP2X7 cells were plated onto 13-mm glass coverslips 24 h prior to use. Membrane currents were recorded in the whole-cell patch-clamp configuration using an EPC10 amplifier (HEKA Elektronik) and borosilicate glass electrodes (TF-150 World Precision Instruments), resistance […] when filled with standard internal solution (145 mM NaCl, 10 mM HEPES, 10 mM EGTA, pH 7.3). Cells were voltage-clamped at − 60 mV, and dialysis of intracellular contents was performed for 1 min prior to experimental procedures. Cells were continuously perfused by gravity feed with standard divalent buffer solution (145 mM NaCl, 5 mM KCl, 2 mM CaCl2, 1 mM MgCl2, 13 mM glucose, 10 mM HEPES, pH 7.3) prior to seal formation, and low divalent buffer solution was used for agonist and PAM application. Agonists were applied using a computer-controlled fast-flow system (RSC-160; Bio-Logic Scientific Instruments) with the perfusion capillaries placed in close proximity to the cell under investigation.
as §1, with “cells). E Concentration response to ATP in the presence of dioscin (10 µM, green) or vehicle (DMSO, black) using YO-PRO-1 uptake assay in HEK-hP2X7 and F HEK-293 cells.” for “cells).”

[4] = target: T2, P2X7 (Homo sapiens, UniProt Q99572); experiment: ATP-induced YO-PRO-1 dye uptake in HEK-hP2X7 cells; type: cell-based
T2 construct: expressed in transfected cells
T2 sequence (Q99572 1-595): T1 sequence (Q99572 1-595)

[5] = system: HEK293 cells; experiment: Propidium iodide staining of HEK293 cells (membrane permeabilisation); type: cell-based, human
Experimental: Fig. 6 Dioscin enhances P2X7-dependent pore formation and potentiates channel opening. A Dioscorea nipponica (organic) plant extract (30 µg/mL) increased ATP-dependent YO-PRO-1 iodide uptake. AZ10606120 (10 µM, grey bars) was added to block hP2X7. B YO-PRO-1 uptake following a co-stimulation of HEK-hP2X7 cells with 200 µM ATP ± the named compounds in the presence or absence of AZ10606120. YO-PRO-1 uptake was quantified between 50 and 300 s (n = 5). C Whole-cell patch-clamp recordings were performed at room temperature. Cells were voltage-clamped at − 60 mV, and responses to a 5-s stimulation of ATP (100 µM) followed by a 5-s stimulation of ATP (100 µM) + dioscin/diosgenin (10 µM) were measured from HEK-hP2X7 cells. Representative traces are shown. D Summary of normalised current amplitudes represented as a fold change compared to ATP responses in the absence of dioscin/diosgenin (n = 10–18 cells). E Concentration response to ATP in the presence of dioscin (10 µM, green) or vehicle (DMSO, black) using YO-PRO-1 uptake assay in HEK-hP2X7 and F HEK-293 cells. […] H HEK-293 cells were treated with dioscin or CK (10 µM) for 10 min and stained with propidium iodide to reveal permeabilised cells. Images taken with EVOS microscope

[6] = Cytotoxicity of purified glycoside (data not shown); type: cell-based

Compound | Cell death in non-transfected HEK-293 cells [1] | YO-PRO-1 dye uptake in non-transfected cells [2] | Potentiation of hP2X7 ion channel opening ([3]; 10 µM with ATP 100 µM, 5-s application, −60 mV) | Ion channel opening by compound alone ([3]; short 5-s application) | Sensitivity of the potentiated ATP response to P2X7 antagonist AZ10606120 ([4]; AZ10606120 10 µM) | Effect on YO-PRO-1 dye uptake with 200 µM ATP ([4]; co-stimulation with 200 µM ATP) | Effect on ATP concentration–response curve ([4]; compound 10 µM) | Effect on P2X7 responses ([4]; purified glycosides/aglycone from potentiating extracts) | Application time after which membrane permeabilisation was observed [5] | Propidium iodide staining ([5]; 10 µM, within 10 min of addition) | Cytotoxicity [6]
C[C@@H]1CC[C@@]2(OC1)O[C@H]1C[C@H]3[C@@H]4CC=C5C[C@@H](O[C@@H]6O[C@H](CO)[C@@H](O[C@@H]7O[C@@H](C)[C@H](O)[C@@H](O)[C@H]7O)[C@H](O)[C@H]6O[C@@H]6O[C@@H](C)[C@H](O)[C@@H](O)[C@H]6O)CC[C@]5(C)[C@H]4CC[C@]3(C)[C@H]1[C@@H]2C [Dioscin, dioscin] | induce cell death | increase YO-PRO-1 dye uptake in non-transfected HEK-293 cells in the presence of ATP | could potentiate hP2X7 ion channel opening | not inducing ion channel opening itself | could be reduced with AZ10606120 | able to enhance YO-PRO-1 dye uptake | increase in the maximum response with no leftward shift | could effectively potentiate P2X7 responses | > 10 min | induce propidium iodide staining | 
CC1(C)CC[C@]2(C(=O)O)CC[C@]3(C)C(=CC[C@@H]4[C@@]5(C)CC[C@H](O[C@@H]6O[C@H](C(=O)O)[C@@H](O)[C@H](O[C@@H]7OC[C@@H](O)[C@H](O)[C@H]7O)[C@H]6O)C(C)(C)[C@@H]5CC[C@]43C)[C@@H]2C1 [Momordin Ic, momordin Ic] |  |  |  |  |  |  |  |  |  |  | high level of cytotoxicity
